The record followed here is US20190343874A1, “USE OF NICKEL COMPLEX IN PREPARING DRUG FOR RELIEVING INFLAMMATION” (NATIONAL TAIWAN NORMAL UNIVERSITY, priority 2018, published 2019).

In series [1] the test system is bladder tissue of adult female Wistar rats. Nature of the series: bladder tissue slices and perfusion unit after para-phenylenediamine. Format: in vivo. To be noted: PPD i.p. for 4 weeks vs control group. Here is the method:
(§1) In the current embodiment, 24 adult female Wistar rats were adopted as the experimental animals in the animal experiments and were randomly divided into four groups to be treated with different intraperitoneal injections. Referring to Table 1, the four groups are as follows: 1) the control group: 1 mL/day saline solution for 4 weeks; 2) the first experimental group: PPD (60 […]) for 4 weeks; 3) the second group: PPD ([…]) for 4 weeks and a drug (1.5 mg/kg/day) prepared from WCT003 for the last 2 weeks of; 4) the third experimental group: PPD (60 μg/kg/day) for 4 weeks and a drug (1.5 mg/kg/day) prepared from WCT006 for the last 2 weeks.
It could be known from the experiment data that para-phenylenediamine induces inflammatory response and ischemia in the bladders of the rats in the first experimental group.

The next series relates to adult female Wistar rats. Nature of the series: metabolic cage sample data. Format: in vivo. On the procedure: as §1
Referring to Table 2, which lists the sample data collected from the rats of the control group and the first experimental group where were placed in the metabolic cage: […]

Series [2] deals with bladder of adult female Wistar rats. The series is described as follows: intravesical pressure measurement in para-phenylenediamine-treated rats. Format: in vivo. On the procedure: as §1
Then, each group of the rats were anesthetized with urethane (1.2 g/kg) via percutaneously injection, and a catheter was placed in a left femoral artery of each of the rats to measure arterial pressure (ABP). Meanwhile, intravesical pressure of the rats were also measured to obtain the parameters such as bladder intercontraction interval (ICI), urination time (MT), maximum urination pressure (MVP), contraction amplitude (A=MVP-BP), urination pressure threshold (PT), etc., as shown in FIG. 3 to FIG. 5.

The test system of a further series is reactive oxygen species. The series is described as follows: luminol and lucigenin chemiluminescence of blood or urine samples (in vitro). Further details: species or system Wistar rats. To be noted: PPD i.p. for 4 weeks. Here is the method: To determine the effect of the drug prepared from the nickel complex WCt003 and WCt006 on eliminating reactive oxygen species, a luminol and lucigenin chemiluminescence (CL) method was utilized. The method includes the following steps: 0.2 ml sample of blood or urine was mixed with 0.5 ml of 1 mmol/L lucigenin or 0.2 mmol/L luminol, and then the mixture was analyzed with a chemiluminescence analysis system, wherein, the recorded signals were corresponding to the hydrogen peroxide (H2O2) and hypochlorous acid (HOCl) count in the luminol method, while the recorded signals were corresponding to the superoxide anion (O2^−) count in the lucigenin method.

For series [3], the system named is reactive oxygen species in the bladder cells. Nature of the series: reactive oxygen species count in the bladder (in vivo). Set-up: species or system Wistar rats. Particulars: PPD alone i.p. for 4 weeks, FIG. 9 and 10. Here is the method: as §1
FIG. 10 show the analytical data of the reactive oxygen species count in vivo for each group of rats. It could be seen from FIG. 9 and FIG. 10 that the reactive oxygen species count in the bladder cells of the first experimental group of rats is much higher than that of the control group.

Where [4] appears, read: first experimental group: PPD i.p. for 4 weeks.
The mark [5] stands for this setting: first experimental group: PPD alone i.p. for 4 weeks.

Molecules are shown by their SMILES.

In the case of `Nc1ccc(N)cc1` [para-phenylenediamine], in series [1] (FIG. 1), the “mast cell in the bladder” value is reported as “significant increase” and the “neutrophil infiltration in the bladder tissue” value is on record as “have neutrophil infiltration in the bladder tissue”. For the same compound, in series [1] (FIG. 2), the perfusion unit result is “reduced”. For the same compound, in the series on adult female Wistar rats (PPD i.p. for 4 weeks, in words), the “stool vs control group” value is reported as “more”, the “urinary frequency vs control group” value is reported as “more frequent” and the “urine vs control group” value was “more”. Also, in the series with adult female Wistar rats (setting [4]), the “Body Weight” value is reported as 277.8 ± 3.8 g, the Food amounted to 22.9 ± 4.4 g, the Stool stood at 35.7 ± 8.1 g and the “Urinary frequency (24 hours)” value stood at 53.1 ± 13.3. Also, in the series with adult female Wistar rats (setting [4]), the Urine is 32.7 ± 7.5 mg and the Water intake was determined as 57.7 ± 7.2 mL. Further, the “bladder intercontraction interval vs control group” value in series [2] (PPD i.p., in words, Table 3 and FIG. 6) was “significantly shorter”. In addition, in series [2] (setting [5]), the “A (contraction amplitude)” value was determined as 20.3 ± 0.9 mmHg, the “ICI (bladder intercontraction interval)” value is on record as 35.8 ± 6.0 s and the “MVP (maximum urination pressure)” value is 30.6 ± 0.9 mmHg. Also, the “O2− count in the blood sample vs control group” value with reactive oxygen species (blood, lucigenin, FIG. 8) was “higher”. For the same compound, in the series on reactive oxygen species (blood, luminol, FIG. 8), the “H2O2 and HOCl counts in the blood sample vs control group” value is “significantly higher”. Besides, in the series on reactive oxygen species (urine, FIG. 7), the “reactive oxygen species count in urine samples vs control group” value is given as “no significant difference”. Moreover, the “reactive oxygen species count in the bladder cells vs control group” value in series [3] is listed as “much higher”.
